Entries after “also recorded” stand apart in the source; their conditions may differ.
How the values were obtained:
[1] = test system: MZB cells in the spleen; experiment: Marginal Zone B cell development in the spleen (flow cytometry); format: in vivo, mouse; details: 25 mg/kg, 7 consecutive days, analysed day 8
Procedure: FIGS. 7A-7C show 6-(4-Tert-Butylphenoxy)Pyridin-3-Amine (I3) mimics genetic loss of Notch2 signalling phenotype in the spleen. Loss of Notch signalling in the spleen leads to a reduction in Marginal Zone B cells (MZB) cells in the spleen. […] Spleens were analyzed on day 8. Using B220 specific antibodies, B cells in the spleen were identified. MZB cells within the B cell compartment were detected using antibodies against CD23 and CD21 cell surface markers.
Fluorescence activated cell sorting (FACS) analyses were performed on CyAn™ ADP instrument platform for flow cytometry at Flow cytometry core facility, EPFL. DL4 and Notch1 expression in DL4- and N1-HeLa cells was determined using anti-DL4 and anti-N1 antibodies respectively. T cell development in the thymus was investigated using antibodies against CD4, CD8 and TCRβ. MZB cell development was monitored using antibodies against B220, CD21 and CD23. In brief, a single cell suspension was prepared from thymus and spleen. […]
Applicants hypothesized that 6-(4-Tert-Butylphenoxy)Pyridin-3-Amine (I3) mediated inhibition of Notch2 signalling should lead to a block in MZB cell development in the spleen. MZB cell development was assessed by flow cytometry staining of splenocytes with antibodies directed against B220, CD21 and CD23.

[2] = test system: nRas driven melanoma cell lines; experiment: Alamar blue proliferation assay, nRas driven melanoma cells; format: cell-based, human; details: 10 μM, 4 days
Procedure: Human T-ALL cell lines RPMI 8402 and KOPTK1, and pancreatic cancer cell line PANC1 as well as nRas driven melanoma cells were seeded in a 96 well plate and treated with 10 μM concentration of 6-(4-Tert-Butylphenoxy)Pyridin-3-Amine (I3) and DAPT for several days. Their growth inhibitory effects were compared with cells treated with equal amount of DMSO. Using Alamar blue assay, the growth kinetics of RPMI 8402 and KOPTK1 were followed for upto 6 days, while PANC1 and nRas melanoma cells were monitored for 4 days. 6-(4-Tert-Butylphenoxy)Pyridin-3-Amine (I3) treatment of RPMI 8402, KOPTK1. […] Statistical analyses were done using student's t.test. *=p value<0.05. ns=not significant.
Alamarblue® proliferation assays were performed to determine the growth kinetics of Notch inhibitor treated cells. Alamar Blue® consists of a cell permeable substrate resazurin. In metabolically active and proliferating cells, resazurin is converted to resorufin due to an intrinsic reducing power of live cells and produces a red fluorescence. Therefore production of resorufin serves as an indicator of the viability of the cell population.
Proliferation assays were performed by seeding 5000 cells/well in a 96 well plate. Cells were treated with DMSO or Notch inhibitors for different time intervals. […] Alamarblue readout was taken using Tecan F500 (Tecan) multiplate reader. […]

[3] = test system: active form of Notch1 (NICD); experiment: NICD Western blot (VAL1744) in DL4:N1 HeLa coculture; format: cell-based, human; details: DL4- and N1-HeLa coculture, DAPT 10 μM, 24 hours
Procedure: Cells were lysed in RIPA buffer (50 mM Tris.Cl, pH 7.5, 150 mM NaCl, 1% nonidet P-40, 0.5% sodium deoxycholate and 0.1% SDS) for 30 minutes at 4° C. Lysed cells were centrifuged to remove the debris at 14000 rpm at 4° C. Supernatant was transferred to a new eppendorf tube. The protein concentration was determined by Bradford assay using spectrophotometer (Ultrospec 3000 pro). 40 μg of protein were denatured in 1×SDS gel loading buffer (100 mM Tris.Cl, pH 6.8, 200 mM DTT, 4% SDS, 0.2% bromophenol, 20% glycerol) by heating at 99° C. for 5 minutes. Denatured protein samples were stored on ice until loading on to the acrylamide gel. The samples were run on 8% or 10% acrylamide gel in Tris-glycine electrophoresis buffer (25 mM Tris, 250 mM glycine, 0.1% SDS). […]
For immunoblotting, membranes were blocked with 5% milk and incubated overnight with primary antibodies at 4° C. […] Signal was detected with Super Signal West chemiluminescent substrate (Thermo Scientific, catalog number 34077).
To assess the Notch pathway activation potential of the stable cell lines, DL4 and N1 stable HeLa cells (DL4-HeLa and N1-HeLa, respectively) were cocultured in 1:1 ratio in a 6-well plate and grown to confluency. […] On the other hand, in the absence of ligand (DL4-HeLa cells) or in the presence of GSI (DAPT) NICD levels were not detected, indicating a loss of Notch signalling (data not shown). […]

**Q.** For `CC(C)(C)c1ccc(Oc2ccc(N)cn2)cc1` [I3, 6-(4-Tert-Butylphenoxy)Pyridin-3-Amine], which “absolute numbers of MZB cells in the spleen” value [1] is on record?
**A.** Its value is “loss of MZB cell population in the spleen also reflects in the absolute number of MZB cells; also recorded: causes a reduction the percentage and absolute numbers of MZB cells in the spleen”.

**Q.** What about the “percentage of MZB cells in the spleen” value [1] of the same molecule?
**A.** The value was “leads to a reduction in the percentage of MZB cell population in the spleen; also recorded: causes a significant reduction in the percentage of MZB cells in the spleen; also recorded: causes a reduction the percentage and absolute numbers of MZB cells in the spleen”.

**Q.** And the “proliferation (Alamar blue)” value [2]?
**A.** Its value is “significantly inhibited the growth; also recorded: caused a significant reduction in their growth potential”.

**Q.** With `C[C@H](NC(=O)Cc1cc(F)cc(F)c1)C(=O)N[C@H](C(=O)OC(C)(C)C)c1ccccc1` [DAPT, N—[N-(3,5-difluorophenacetyl-Lalanyl)]-(S)-phenylglycine t-butyl ester, reference compound] as the molecule, how does the “NICD levels (Western blot)” value [3] read?
**A.** The value was “can be blocked by DAPT treatment”.
